In patent publication US6538015B1, “Anti-HIV pyrazole derivatives” (Hoffmann-La Roche Inc., priority 2001, dated 2003):
Where two headings read alike, the source gives them in different places.

Experiments:
[1] = target: HIV-1 RT (Human immunodeficiency virus type 1 group M subtype B, UniProt P04585); assay: HIV-1 Reverse Transcriptase Assay: Inhibitor IC50 Determination; type: biochemical
Procedure: HIV-1 Reverse Transcriptase Assay: Inhibitor IC50 Determination
HIV-1 RT assay was carried out in 96-well Millipore filtermat NOB50 plates using purified recombinant enzyme and a poly(rA)/oligo(dT)16 template-primer in a total volume of 50 μL. The assay constituents were 50 mM Tris/HCl, 50 mM NaCl, 1 mM EDTA, 6 mM MgC2, 5 μM dTTP, 0.1 μCi [^3H] dTTP, 5 μg/ml poly (rA) pre annealed to 2.5 μg/ml oligo (dT)16 and a range of inhibitor concentrations in a final concentration of 10% DMSO. Reactions were initiated by adding 5 nM HIV-1 RT and after incubation at 37° C. for 30 min, they were stopped by the addition of 50 μl ice cold 20% TCA and allowed to precipitate at 4° C. for 30 min. The precipitates were collected by applying vacuum to the plate and sequentially washing with 2×200 μl of 10% TCA and 2×200 μl 70% ethanol. Finally the plates were dried and radioactivity counted in a Wallac Microbeta 1450 after the addition of 15 VI scintillation fluid per well. IC50's were calculated by plotting % inhibition versus log10 inhibitor concentrations.

[2] = test system: HXB2-strain of HIV; assay: Antiviral assay: protection of HIV-infected MT4 cells from cell death (MTT); type: cell-based; settings: Human immunodeficiency virus 1, 120 h; MT4 cells infected with HXB2-strain of HIV, 5 d, MTT cell viability
Procedure: Anti-HIV antiviral activity was assessed using an adaptation of the method of Pauwels et al. {Pauwels et al., 1988, J Virol Methods 20:309-321}. The method is based on the ability of compounds to protect HIV-infected T lymphoblastoid cells (MT4 cells) from cell-death mediated by the infection. The endpoint of the assay was calculated as the concentration of compound at which the cell viability of the culture was preserved by 50% (‘50% inhibitory concentration’, IC50). The cell viability of a culture was determined by the uptake of soluble, yellow 3-[4,5-dimethylthiazol-2-yl]-2,5-diphenyltetrazolium bromide (MTT) and its reduction to a purple insoluble formazan salt. After solubilization, spectrophotometric methods were employed to measure the amount of formazan product.
MT4 cells were prepared to be in logarithmic-phase growth and a total of 2×10^6 cells infected with the HXB2-strain of HIV at a multiplicity of 0.0001 infectious units of virus per cell in a total volume of between 200-500 microliters. The cells were incubated with virus for one h at 37° C. before removal of virus. The cells are then washed in 0.01 M phosphate buffered saline, pH 7.2 before being resuspensed in culture medium for incubation in culture with serial dilutions of test compound. The culture medium used was RPMI 1640 without phenol red, supplemented with penicillin, streptomycin, L-glutamine and 10% fetal calf serum (GM10).
Test compounds were prepared as 2 mM solutions in dimethyl sulphoxide (DMSO). Four replicate, serial 2-fold dilutions in GM10 were then prepared and 50 microliters amounts placed in 96-well plates over a final nanomolar concentration range of 625-1.22. Fifty microliters GM10 and 3.5×10^4 infected cells were then added to each well. Control cultures containing no cells (blank), uninfected cells (100% viability; 4 replicates) and infected cells without compound (total virus-mediated cell death; 4 replicates) were also prepared. The cultures were then incubated at 37° C. in a humidified atmosphere of 5% CO2 in air for 5 d.
A fresh solution of 5 mg/mL MTT was prepared in 0.01 M phosphate buffered saline, pH 7.2 and 20 microliters added to each culture. The cultures were further incubated as before for 2 h. They were then mixed by pipetting up and down and 170 microliters of Triton X-100 in acidified isopropanol (10% v/v Triton X-100 in 1:250 mixture of concentrated HCl in isopropanol). When the formazan deposit was fully solubilized by further mixing, the absorbance (OD) of the cultures was measured at 540 nm and 690 nm wavelength (690 nm readings were used as blanks for artefacts between wells). The percent protection for each treated culture can be calculated from the equation: [formula]

[3] = purified recombinant enzyme, poly(rA)/oligo(dT)16 template-primer, 37° C. 30 min, read-out: RT IC50/nM

## CC(C)n1nc(CO)c(Cc2ccncc2)c1Sc1cc(Cl)cc(Cl)c1
[1]; [3]
  IC50: 62 nM
[2]
  IC50: 1.3 nM

## CC(C)n1nc(COC(N)=O)c(Cc2ccncc2)c1Sc1cc(Cl)cc(Cl)c1
[1]
  IC50: 32 nM
[2]
  IC50: 1 nM

## CC(C)n1nc(CN)c(Cc2ccncc2)c1Sc1cc(Cl)cc(Cl)c1
[1]; [3]
  IC50: 714 nM
[2]
  IC50: 7 nM

## CC(C)n1nc(CNC(N)=O)c(Cc2ccncc2)c1Sc1cc(Cl)cc(Cl)c1
[1]; [3]
  IC50: 44 nM
[2]
  IC50: 1 nM

## CC(C)n1nc(CNS(C)(=O)=O)c(Cc2ccncc2)c1Sc1cc(Cl)cc(Cl)c1
[1]; [3]
  IC50: 7920 nM

## COC(=O)NCc1nn(C(C)C)c(Sc2cc(Cl)cc(Cl)c2)c1Cc1ccncc1
[1]; [3]
  IC50: 525 nM

## CC(C)n1nc(COC(N)=O)c(COCc2ccncc2)c1Sc1cc(Cl)cc(Cl)c1
[1]; [3]
  IC50: 99 nM
[2]
  IC50: 13 nM

## CCn1nc(CO)c(Cc2ccncc2)c1Sc1cc(Cl)cc(Cl)c1
[1]; [3]
  IC50: 183 nM
[2]
  IC50: 30 nM

## CC(C)n1nc(CO)c(Cc2cccs2)c1Sc1cc(Cl)cc(Cl)c1
[1]; [3]
  IC50: 434 nM
[2]
  IC50: 93 nM

## CC(C)n1nc(CO)c(Cc2ccncc2)c1Sc1cc(F)cc(F)c1
[1]; [3]
  IC50: 206 nM
[2]
  IC50: 6 nM

## CC(C)n1nc(COC(N)=O)c(Cc2cccs2)c1Sc1cc(Cl)cc(Cl)c1
[1]; [3]
  IC50: 211 nM
[2]
  IC50: 30 nM

## CC(C)n1nc(COC(N)=O)c(Cc2ccncc2)c1Sc1cc(Cl)cc(Br)c1
[1]; [3]
  IC50: 31 nM
[2]
  IC50: 3 nM

## Cc1ncc(Br)c(Cc2c(CO)nn(C(C)C)c2Sc2cc(Cl)cc(Cl)c2)n1
[1]; [3]
  IC50: 518 nM

## COc1cc(Cc2c(CO)nn(C(C)C)c2Sc2cc(Cl)cc(Cl)c2)ccn1
[1]; [3]
  IC50: 51 nM
[2]
  IC50: 38 nM

## CC(C)n1nc(CO)c(Cc2ccc(F)c(F)c2)c1Sc1cc(Cl)cc(Cl)c1
[1]; [3]
  IC50: 123 nM

## CCc1c(COC(N)=O)nn(C(C)C)c1Sc1cc(Cl)cc(Cl)c1
[1]; [3]
  IC50: 61 nM

## CC(C)n1nc(COC(N)=O)c(CO)c1Sc1cc(Cl)cc(Cl)c1
[1]; [3]
  IC50: 6300 nM

## CC(C)n1nc(CO)c(COCc2cccc(C#N)c2)c1Sc1cc(Cl)cc(Cl)c1
[1]; [3]
  IC50: 250 nM
